Patent publication US12422427B2, “Compounds for treatment of diseases and methods of screening therefor” (Max-Planck-Gesellschaft zur Förderung der Wissenschaften …, priority 2018, dated 2025)

Legend:
[1] = target: T1, FUS GFP (Homo sapiens, UniProt P35637); test: In vitro purified FUS GFP droplet screen; type: biochemical; conditions: low salt conditions, 1 mM DTT, up to 100 μM compound
T1 construct: His MBP (N, cleaved yes); made in house; host or cells: baculovirus/insect cell expression system
T1 sequence (P35637 1-526): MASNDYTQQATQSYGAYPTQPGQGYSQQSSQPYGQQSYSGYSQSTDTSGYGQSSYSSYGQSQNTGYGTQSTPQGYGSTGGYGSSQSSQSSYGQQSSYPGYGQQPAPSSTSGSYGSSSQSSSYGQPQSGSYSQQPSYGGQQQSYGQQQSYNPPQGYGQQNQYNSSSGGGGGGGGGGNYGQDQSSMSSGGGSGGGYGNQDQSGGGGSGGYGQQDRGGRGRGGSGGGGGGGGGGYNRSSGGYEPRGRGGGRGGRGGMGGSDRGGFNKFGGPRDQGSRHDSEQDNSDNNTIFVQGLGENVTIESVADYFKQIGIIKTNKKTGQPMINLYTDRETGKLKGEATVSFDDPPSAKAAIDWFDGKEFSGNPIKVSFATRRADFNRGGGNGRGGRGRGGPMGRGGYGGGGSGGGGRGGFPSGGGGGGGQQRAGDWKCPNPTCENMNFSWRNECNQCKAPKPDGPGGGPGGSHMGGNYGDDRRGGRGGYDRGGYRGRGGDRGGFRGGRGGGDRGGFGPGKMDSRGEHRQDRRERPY
Protocol: Compounds that can directly interact with FUS were of primary interest, therefore the inventors performed a follow up screen for action of compounds on FUS droplet formation in vitro (FIG. 1D). […] Hits were identified by the effect on number of FUS droplets formed and the partition of FUS into the droplets formed under low salt conditions in vitro in the presence of 1 mM DTT to mimic the reducing intracellular environment (FIG. 1E).
The effect of compounds on FUS GFP droplets in vitro was assessed in 384 well plate format. The compound volume (in DMSO) necessary for 1, 3, 10, 30 or 100 μM final concentration were added by acoustic dispensing (Labcyte Echo 550) to 96 well plate wells containing 3 μl FUS GFP diluted in 50 mM Tris. HCl pH 7.4, 1 mM DTT (for low salt assays). Final DMSO concentration was 0.01 to 1%. Using a Freedom Evo 200 liquid handling workstation (TECAN) the FUS GFP/compound mixture was diluted in 7 μl assay buffer containing 50 mM Tris. HCl pH 7.4, 1 mM DTT, 50 mM KCl and 0.7 μM FUS GFP. Compound/FUS GFP and assay buffer were mixed by a standardised pipetting procedure then split to four wells in clear bottom 384 well plates then immediately imaged using a CellVoyager CV7000 automated spinning disc confocal microscope (as above). […] Droplet number and FUS GFP partition into droplets were analysed with a fixed intensity threshold using ImageJ.

[2] = tested on: P bodies, Cajal bodies, PML bodies, DNA damage foci, nucleolus; test: Effect on other non-membrane bound compartments in HeLa GFP marker lines; type: cell-based
Protocol: FIG. 4A) Images of HeLa cells expressing Protein GFP markers of other non-membrane bound compartments subject to 1 h treatment with 10 μM compound (or DMSO control). Where unclear, the position of nuclei is indicated with a dotted outline. […] FIG. 4B) Recruitment of FUS GFP to sites of UV laser-induced DNA damage in iPS cells after 1 h treatment with compound followed by 1 h arsenate stress.
Stress granules are one of several, similar, cytoplasmic RNA-containing liquid-like compartments. […] Several stress granule proteins also form nuclear bodies: nuclear paraspeckles, and foci at the sites of DNA damage. There are also many other nuclear liquid-like compartments. It was then asked whether lipoamide also affected these other bodies, using a panel of cell lines expressing GFP fusions. For this analysis, mitoxantrone was included as a representative of the heterotri-/tetracyclic compound class of hits (FIG. 1F). An overly-broad effect on liquid-like compartments would likely cause side-effects for a therapeutic.
The action of lipoamide is therefore specific to the signaling and/or physical chemistry driving stress granule formation, stress granule phase separation, and/or a specific signaling route. Stress granules normally form and dissolve rapidly in comparison to many other compartments.

[3] = tested on: FUS GFP; test: Ex vivo DNA cut assay: FUS GFP recruitment to UV laser-induced DNA damage; type: cell-based, human
Text: FUS is recruited to sites of DNA damage, and a potential mechanism contributing to ALS pathogenesis is reduced DNA damage response due to sequestration of FUS in the cytoplasm in stress granules. Strong association of FUS nuclear localization (NLS) mutations (e.g., P525L) with familial ALS mutations supports this hypothesis. The inventors therefore tested whether lipoamide affect FUS recruitment to sites of DNA damage induced by focused UV laser irradiation site, using arsenate-stressed iPSCs expressing FUS GFP (FIG. 4B). […] The action of lipoamide is therefore specific to cytoplasmic FUS liquid-like compartments, a therapeutically useful feature.
UV micro-irradiation of live cells was performed to induce DNA damage. KOLF iPS MNs expressing […] were […]. A single point in the nucleus was subject to 3 UV pulses as described for FRAP, but at 10% laser power. GFP fluorescence was imaged at 1 Hz, and intensity of response was analysed in ImageJ.

[4] = tested on: HeLa cells expressing FUS GFP; test: HeLa cell compound dose responses (FUS GFP, arsenate stress); type: cell-based; conditions: 1 h pre-treatment, 1 h arsenate stress
Protocol: Small dilution steps rather than concentration replicates were selected as it provides greater statistical power from a set number of samples. Final DMSO concentration was 0.08% in all samples, and each plate included at least 12 control wells with 0.08% DMSO. Cytoplasmic FUS droplet number and nuclear/cytoplasm partition of FUS were analysed using custom macros in ImageJ. Nuclei were identified by intensity thresholding of the blue fluorescence image following a 5 px Gaussian blur. Cytoplasmic FUS droplets by intensity thresholding of the green image following a 10 px weight 0.9 unsharp filter masked by the thresholded nuclei, and nuclear FUS droplets by intensity thresholding of the green image following a 5 px weight 0.9 unsharp filter and 10 px rolling ball background subtraction masked to only include thresholded nuclei. The ratio of cytoplasmic FUS drops to nuclei was taken as cytoplasmic FUS droplets per cell per field of view, and p, the ratio of partition of FUS to the nucleus and the cytoplasm, was derived from a=Vn/vt, the ratio of nuclear to total green signal per field of view, where p=a/(1−a). […] Six fields of view were captured and analysed per condition.

[5] = target: T2, FUS low complexity domain (residues 1 to 163) (Homo sapiens, UniProt P35637); test: 1H-15N HSQC NMR of FUS low complexity domain with compound; type: binding; conditions: 500 μM compound
T2 construct: untagged FUS low complexity domain (residues 1 to 163) expressed, purified and analysed; made in house
T2 sequence (P35637 1-163): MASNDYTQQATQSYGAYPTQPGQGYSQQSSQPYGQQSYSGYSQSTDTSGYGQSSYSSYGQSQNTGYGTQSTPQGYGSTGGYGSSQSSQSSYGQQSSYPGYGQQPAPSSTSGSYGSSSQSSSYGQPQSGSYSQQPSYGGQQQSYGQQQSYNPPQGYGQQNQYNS
Protocol: Finally, mechanistic detail was analyzed at the sub-molecular level by using NMR of the FUS prion-like N-terminal LCD to determine putative sites of lipoamide interaction. The LCD is able to phase separate to form condensates in vitro and the individual residues can be resolved and assigned in a ^1H-^15N heteronuclear single quantum coherence spectrum. ^1H-^15N analyses reveal a change in environment of individual residues as indicated by their corresponding chemical shifts. The magnitude of chemical shift changes were compared with and without both lipoamide or mitoxantrone. […] This leaves several possibilities: Perhaps lipoamide interacts with the FUS LCD only when phase separated, potentially reducing viscosity, or interacts with the condensate phase boundary, perhaps increasing surface tension. Such interactions may reduce formation or expansion of aggregated forms of FUS involved in condensate hardening and reduced liquidity.
For analysis of compound interaction with FUS untagged FUS low complexity domain (residues 1 to 163) expressed, purified and analysed using ^1H-^15N heteronuclear single quantum coherence NMR and sample conditions previously described^14 in the presence of 500 μM compound or equivalent DMSO solvent control (1%).

O=C1c2c(O)ccc(O)c2C(=O)c2c(NCCNCCO)ccc(NCCNCCO)c21 [mitoxantrone, reference compound]
FUS GFP droplet number, partition into droplets and droplet size [1]: fewer smaller drops
disruption of P bodies (DCP1A), Cajal bodies (COIL), DNA damage foci (TRP53BP1), nucleolus (NCB1) ([2]; 1 h treatment with 10 μM compound): non-stress granule specific effects
localization of P-body, PML body and DNA damage focus proteins ([2]; conditions that would dissolve stress granules): affected all of these compartments to some extent
FUS GFP recruitment to sites of DNA damage ([3]; concentrations not sufficient to dissolve cytoplasmic FUS droplets): blocked recruitment of FUS GFP to sites of DNA damage
formation of nuclear FUS droplets at the sites of DNA damage (FIG. 4B legend) ([3]; iPS cells, arsenate stress): prevents formation of nuclear FUS droplets
nuclear/cytoplasm FUS partition, dose response [4]: decreased nuclear/cytoplasm FUS partition
stress granule number, dose response [4]: reducing stress granule number
chemical shift changes of FUS LCD residues [5]: weak shifts across the LCD
